Values quoted from earlier work in US20240207248A1, “METHODS, KITS AND COMPOSITIONS FOR REDUCING CHROMOSOMAL INSTABILITY IN CANCER CELLS” (BARUCH S. BLUMBERG INSTITUTE, priority 2021, published 2024).

System: aneuploid primary mouse embryonic fibroblasts carrying Robertsonian fusion chromosomes
Conditions: energy and proteotoxic stress-inducing compounds

Row | SMILES | selectivity against aneuploid primary mouse embryonic fibroblasts
1 | C=CCNC1=C2C[C@@H](C)C[C@H](OC)[C@H](O)[C@@H](C)/C=C(\C)[C@H](OC(N)=O)[C@@H](OC)/C=C\C=C(/C)C(=O)NC(=CC1=O)C2=O [17-AAG] | showed selectivity
2 | NC(=O)c1ncn([C@@H]2O[C@H](CO)[C@@H](O)[C@H]2O)c1N [AICAR] | showed selectivity
